pKd, pKi: −log10 of the molar value. Where two headings read alike, the source gives them in different places.
Experiments:
[1] = target: T1, mouse NPC1L1 (Mus musculus, UniProt Q6T3U4, N476K); experiment: Fluorescence NPC1L1 binding assay, HEK-293 cells, fluorescent compound 2 as ligand
T1 construct: expressed in transfected cells
Procedure: (§1) Cell Culture and Membrane Preparation. Each plasmid pCR3.1 harboring NPC1L1 was prepared using standard molecular biology protocols. Stable cell lines expressing human, rhesus monkey, mouse, rat, hamster, canine or rabbit NPC1L1 were generated using Lipofectamine 2000 transfection reagent in HEK-293 cells according to the manufacturer's protocol. Cells were maintained in DMEM supplemented with 10% FBS, 100 U/ml pen/strep, and 500 μg/ml geneticin at 37° C., 5% CO2. All cell culture reagents were obtained from Invitrogen Life Technologies, (Carlsbad, Calif.). Cell membranes were prepared by lysing cells in 5 mM HEPES with protease inhibitors (Complete™ Protease Inhibitor Cocktail Tablets; Roche Diagnostics Corp., Indianapolis Ind.) for 15 min at 4° C. A membrane pellet was obtained by centrifuging the cell lysates at 12,000×g for 25 min. The membranes were resuspended in 5 mM HEPES with protease inhibitors and triturated with a 21G needle.
(§2) Fluorescence. Cells were plated into 384-well black/clear plates (BD Biosciences, Bedford Mass.) for binding experiments the following day. The media was aspirated. […] Media (20 μl) containing the indicated concentration of compound was then added to the wells. […] The binding reaction was allowed to proceed for 4 hours at 37° C. Subsequently the media was aspirated and the cells washed once with PBS.
In an effort to show binding to mouse NPC1L1, several related ezetimibe analogs were examined as possible alternatives to fluorescently-labeled (BODIPY) ezetimibe glucuronide (compound 1) in the binding assay. Compound 2, which is a fluorescently labeled synthetic precursor for fluorescently-labeled (BODIPY) ezetimibe glucuronide (compound 1; Burnett et al., Bioorganic and Medicinal Chemistry Letters 12:315-318 (2002)), was identified as a viable option for detection of mouse NPC1L1 binding. Compound 2 contains a methyl ester substitution for the carboxylic acid on the glucuronide portion of the molecule (compound structures shown in FIG. 4A).

[2] = target: T2, human NPC1L1 (Homo sapiens, UniProt Q9UHC9, T1073A); experiment: Radioligand binding of [3H]-glucuronidated ezetimibe (compound 4) to cell membranes
T2 construct: expressed in transfected cells
T2 sequence (Q9UHC9 22-1332 isoform Q9UHC9-2 T1046A): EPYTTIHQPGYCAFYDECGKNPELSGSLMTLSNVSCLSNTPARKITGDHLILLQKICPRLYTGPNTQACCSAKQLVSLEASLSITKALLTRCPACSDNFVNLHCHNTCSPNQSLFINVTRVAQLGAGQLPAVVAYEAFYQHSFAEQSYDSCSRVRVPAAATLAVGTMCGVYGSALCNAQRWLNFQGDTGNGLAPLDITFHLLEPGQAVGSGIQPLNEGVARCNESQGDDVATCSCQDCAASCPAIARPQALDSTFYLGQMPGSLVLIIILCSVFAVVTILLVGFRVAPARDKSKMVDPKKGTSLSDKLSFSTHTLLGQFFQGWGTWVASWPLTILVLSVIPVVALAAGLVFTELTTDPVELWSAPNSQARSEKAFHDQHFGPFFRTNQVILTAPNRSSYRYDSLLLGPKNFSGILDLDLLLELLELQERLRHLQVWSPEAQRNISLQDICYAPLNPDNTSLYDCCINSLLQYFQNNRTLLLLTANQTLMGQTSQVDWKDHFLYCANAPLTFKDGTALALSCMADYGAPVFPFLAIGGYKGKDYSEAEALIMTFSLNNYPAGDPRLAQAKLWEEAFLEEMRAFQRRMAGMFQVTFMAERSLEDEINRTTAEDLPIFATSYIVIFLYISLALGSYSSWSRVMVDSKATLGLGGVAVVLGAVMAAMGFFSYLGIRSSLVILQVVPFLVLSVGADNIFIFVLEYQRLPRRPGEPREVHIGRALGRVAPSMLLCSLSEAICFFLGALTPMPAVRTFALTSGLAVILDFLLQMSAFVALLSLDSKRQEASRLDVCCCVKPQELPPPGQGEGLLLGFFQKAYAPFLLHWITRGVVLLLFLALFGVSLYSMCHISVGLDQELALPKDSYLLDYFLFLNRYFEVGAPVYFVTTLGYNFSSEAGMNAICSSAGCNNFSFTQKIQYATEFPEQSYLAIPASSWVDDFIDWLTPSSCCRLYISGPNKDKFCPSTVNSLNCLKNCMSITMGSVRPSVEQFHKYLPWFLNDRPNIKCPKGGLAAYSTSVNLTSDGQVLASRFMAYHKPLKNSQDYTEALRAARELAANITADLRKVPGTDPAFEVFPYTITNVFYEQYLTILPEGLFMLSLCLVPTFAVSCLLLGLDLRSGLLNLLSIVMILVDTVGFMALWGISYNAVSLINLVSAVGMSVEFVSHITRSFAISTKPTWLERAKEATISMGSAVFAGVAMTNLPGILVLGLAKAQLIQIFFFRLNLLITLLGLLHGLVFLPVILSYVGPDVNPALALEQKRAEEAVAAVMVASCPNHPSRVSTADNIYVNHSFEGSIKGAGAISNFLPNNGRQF
Procedure: Cell Culture and Membrane Preparation. […] Cells were maintained in DMEM supplemented with 10% FBS, 100 U/ml pen/strep, and 500 μg/ml geneticin at 37° C., 5% CO2. All cell culture reagents were obtained from Invitrogen Life Technologies, (Carlsbad, Calif.). Cell membranes were prepared by lysing cells in 5 mM HEPES with protease inhibitors (Complete™ Protease Inhibitor Cocktail Tablets; Roche Diagnostics Corp., Indianapolis Ind.) for 15 min at 4° C. A membrane pellet was obtained by centrifuging the cell lysates at 12,000×g for 25 min. […] Radioligand. […] Natl. Acad. Sci. […] Reactions were performed in binding buffer (5 mM HEPES, 5.5 mM glucose, 117 mM NaCl and 5.4 mM KCl, pH 7.4). Cell membranes (50 μg in 20 μl) were added to each well. […] Binding reactions were incubated for 2 hours at 37° C. Samples were transferred to Unifilter-96 GF/C plates (Perkin Elmer, Wellesley Mass.) and filtered using a Brandel harvester (Gaithersburg Md.). […] Liquid scintillant (50 μl; Microscint-20, Perkin Elmer, Wellesley Mass.) was added and the bound radioactivity was measured using a microplate scintillation counter.

[3] = target: T2, human NPC1L1; experiment: Fluorescence NPC1L1 binding assay, HEK-293 cells, BODIPY-labeled compound 1; settings: Human NPC1L1, competition with compound 1; read-out: Ki
Procedure: as §1, §2

[4] = target: hamster NPC1L1 (Mesocricetus auratus, UniProt A0MJA8); experiment: as above
Procedure: as §1, §2

[5] = target: T3, rat NPC1L1 (Rattus norvegicus, UniProt Q6T3U3, A349V/E317P/G318E/K324N/L297S); experiment: as above; settings: Rat NPC1L1, competition with compound 1; read-out: Ki
T3 construct: expressed in transfected cells
Procedure: as §1, §2

**Q.** What does the source list for `O=C(O)[C@H]1O[C@@H](Oc2ccc([C@@H]3[C@@H](CC[C@H](O)c4ccc(F)cc4)C(=O)N3c3ccc(F)cc3)cc2)[C@H](O)[C@@H](O)[C@@H]1O` [compound 4, glucuronidated ezetimibe]?
**A.** pKi ([1]; Mouse NPC1L1, competition with compound 2, read-out: Ki): 5.05; pKi ([1]; Table 3, Mouse, read-out: Ki Mouse NPC1L1): 5.27; pKd [2]: 6.69; pKi [3]: 6.18; pKi ([4]; Hamster NPC1L1, competition with compound 1, read-out: Ki): 6.43; pKi ([4]; Table 3, Hamster, read-out: Ki Hamster NPC1L1): 6.43; pKi [5]: 6.45
